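A five-concentration, 48-hour dose response in 96-well plates underlies each endpoint, interpolated linearly between surrounding concentrations. Abbreviation: GI50, concentration required for 50% inhibition of growth. TGI: total growth inhibition.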
Key:
Test in all cases: growth of human tumour cells (NCI), 48 h
786-0 renal = system: 786-0 renal
A498 renal = system: A498 renal
A549 NSCLC = system: A549 NSCLC
ACHN renal = system: ACHN renal
BT-549 breast = system: BT-549 breast
CAKI-1 renal = system: CAKI-1 renal
COLO 205 colon = system: COLO 205 colon
DU-145 prostate = system: DU-145 prostate
HCC-2998 colon = system: HCC-2998 colon
HCT-116 colon = system: HCT-116 colon
HCT-15 colon = system: HCT-15 colon
HOP-62 NSCLC = system: HOP-62 NSCLC
HOP-92 NSCLC = system: HOP-92 NSCLC
HS 578T breast = system: HS 578T breast
HT29 colon = system: HT29 colon
IGROV1 ovarian = system: IGROV1 ovarian
KM12 colon = system: KM12 colon
LOX IMVI melanoma = system: LOX IMVI melanoma
M14 melanoma = system: M14 melanoma
MALME-3M melanoma = system: MALME-3M melanoma
MCF7 breast = system: MCF7 breast
MDA-MB-231 breast = system: MDA-MB-231 breast
MDA-MB-468 breast = system: MDA-MB-468 breast
NCI-H226 lung = system: NCI-H226 lung
NCI-H23 lung = system: NCI-H23 lung
NCI-H460 lung = system: NCI-H460 lung
NCI-H522 lung = system: NCI-H522 lung
OVCAR-4 ovarian = system: OVCAR-4 ovarian
OVCAR-5 ovarian = system: OVCAR-5 ovarian
OVCAR-8 ovarian = system: OVCAR-8 ovarian
PC-3 prostate = system: PC-3 prostate
RPMI-8226 leukemia = system: RPMI-8226 leukemia
RXF 393 renal = system: RXF 393 renal
SF-268 CNS = system: SF-268 CNS
SF-295 CNS = system: SF-295 CNS
SF-539 CNS = system: SF-539 CNS
SK-MEL-2 melanoma = system: SK-MEL-2 melanoma
SK-OV-3 ovarian = system: SK-OV-3 ovarian
SN12C renal = system: SN12C renal
SNB-19 CNS = system: SNB-19 CNS
SNB-75 CNS = system: SNB-75 CNS
T-47D breast = system: T-47D breast
TK-10 renal = system: TK-10 renal
U251 CNS = system: U251 CNS
UACC-62 melanoma = system: UACC-62 melanoma
CCRF-CEM leukemia = system: CCRF-CEM leukemia
EKVX NSCLC = system: EKVX NSCLC
HL-60(TB) leukemia = system: HL-60(TB) leukemia
K-562 leukemia = system: K-562 leukemia
MDA-MB-435 = system: MDA-MB-435
MOLT-4 leukemia = system: MOLT-4 leukemia
NCI/ADR-RES ovarian = system: NCI/ADR-RES ovarian
OVCAR-3 ovarian = system: OVCAR-3 ovarian
SK-MEL-28 melanoma = system: SK-MEL-28 melanoma
SK-MEL-5 melanoma = system: SK-MEL-5 melanoma
SW-620 colon = system: SW-620 colon
UACC-257 melanoma = system: UACC-257 melanoma
UO-31 renal = system: UO-31 renal

COc1cc(/C=C/C(=O)c2nnn(-c3ccc(Cl)cc3)c2C)cc(OC)c1OC
GI50 (786-0 renal): 8.67 µM
TGI (786-0 renal): 62 µM
GI50 (A498 renal): > 100 µM
TGI (A498 renal): > 100 µM
GI50 (A549 NSCLC): 6.11 µM
TGI (A549 NSCLC): > 100 µM
GI50 (ACHN renal): 5.82 µM
TGI (ACHN renal): > 100 µM
GI50 (BT-549 breast): 4.23 µM
TGI (BT-549 breast): 84.3 µM
GI50 (CAKI-1 renal): 4.46 µM
TGI (CAKI-1 renal): > 100 µM
GI50 (COLO 205 colon): > 100 µM
TGI (COLO 205 colon): > 100 µM
GI50 (DU-145 prostate): 3.62 µM
TGI (DU-145 prostate): > 100 µM
GI50 (HCC-2998 colon): > 100 µM
TGI (HCC-2998 colon): > 100 µM
GI50 (HCT-116 colon): 3.55 µM
TGI (HCT-116 colon): > 100 µM
GI50 (HCT-15 colon): 3.23 µM
TGI (HCT-15 colon): > 100 µM
GI50 (HOP-62 NSCLC): 11 µM
TGI (HOP-62 NSCLC): > 100 µM
GI50 (HOP-92 NSCLC): 2.55 µM
TGI (HOP-92 NSCLC): 23.6 µM
GI50 (HS 578T breast): 5.47 µM
TGI (HS 578T breast): > 100 µM
GI50 (HT29 colon): 4.1 µM
TGI (HT29 colon): > 100 µM
GI50 (IGROV1 ovarian): > 100 µM
TGI (IGROV1 ovarian): > 100 µM
GI50 (KM12 colon): 8.53 µM
TGI (KM12 colon): > 100 µM
GI50 (LOX IMVI melanoma): 3.06 µM
TGI (LOX IMVI melanoma): > 100 µM
GI50 (M14 melanoma): 3.59 µM
TGI (M14 melanoma): > 100 µM
GI50 (MALME-3M melanoma): 7.35 µM
TGI (MALME-3M melanoma): > 100 µM
GI50 (MCF7 breast): 3.23 µM
TGI (MCF7 breast): > 100 µM
GI50 (MDA-MB-231 breast): 3.48 µM
TGI (MDA-MB-231 breast): > 100 µM
GI50 (MDA-MB-468 breast): 3.38 µM
TGI (MDA-MB-468 breast): > 100 µM
GI50 (NCI-H226 lung): 7.53 µM
TGI (NCI-H226 lung): > 100 µM
GI50 (NCI-H23 lung): 6.2 µM
TGI (NCI-H23 lung): > 100 µM
GI50 (NCI-H460 lung): 3.59 µM
TGI (NCI-H460 lung): > 100 µM
GI50 (NCI-H522 lung): 4.06 µM
TGI (NCI-H522 lung): > 100 µM
GI50 (OVCAR-4 ovarian): 4.25 µM
TGI (OVCAR-4 ovarian): > 100 µM
GI50 (OVCAR-5 ovarian): > 100 µM
TGI (OVCAR-5 ovarian): > 100 µM
GI50 (OVCAR-8 ovarian): 4.15 µM
TGI (OVCAR-8 ovarian): > 100 µM
GI50 (PC-3 prostate): 3.53 µM
TGI (PC-3 prostate): > 100 µM
GI50 (RPMI-8226 leukemia): 2.22 µM
TGI (RPMI-8226 leukemia): > 100 µM
GI50 (RXF 393 renal): 6.39 µM
TGI (RXF 393 renal): > 100 µM
GI50 (SF-268 CNS): 20.9 µM
TGI (SF-268 CNS): > 100 µM
GI50 (SF-295 CNS): 41.4 µM
TGI (SF-295 CNS): > 100 µM
GI50 (SF-539 CNS): > 100 µM
TGI (SF-539 CNS): > 100 µM
GI50 (SK-MEL-2 melanoma): > 100 µM
TGI (SK-MEL-2 melanoma): > 100 µM
GI50 (SK-OV-3 ovarian): > 100 µM
TGI (SK-OV-3 ovarian): > 100 µM
GI50 (SN12C renal): 4.15 µM
TGI (SN12C renal): > 100 µM
GI50 (SNB-19 CNS): 14.7 µM
TGI (SNB-19 CNS): > 100 µM
GI50 (SNB-75 CNS): 2.83 µM
TGI (SNB-75 CNS): > 100 µM
GI50 (T-47D breast): > 100 µM
TGI (T-47D breast): > 100 µM
GI50 (TK-10 renal): > 100 µM
TGI (TK-10 renal): > 100 µM
GI50 (U251 CNS): 4.1 µM
TGI (U251 CNS): > 100 µM
GI50 (UACC-62 melanoma): 5.59 µM
TGI (UACC-62 melanoma): > 100 µM

Cc1ccccc1[C@H]1C(C(=O)c2ccc(Cl)cc2)C2(N[C@@H]1c1ccccc1)C(=O)Nc1ccc(Br)cc12 (stereo partly specified)
GI50 (786-0 renal): 5.9 µM
TGI (786-0 renal): 10.9 µM
GI50 (A498 renal): 6.11 µM
TGI (A498 renal): 11.7 µM
GI50 (A549 NSCLC): 5.44 µM
TGI (A549 NSCLC): 11.8 µM
GI50 (ACHN renal): 5.76 µM
TGI (ACHN renal): 10.7 µM
GI50 (BT-549 breast): 5.56 µM
TGI (BT-549 breast): 10.6 µM
GI50 (CAKI-1 renal): 4.11 µM
TGI (CAKI-1 renal): 8.63 µM
GI50 (CCRF-CEM leukemia): 7.4 µM
TGI (CCRF-CEM leukemia): 22.4 µM
GI50 (COLO 205 colon): 5.7 µM
TGI (COLO 205 colon): 11.1 µM
GI50 (DU-145 prostate): 5.46 µM
TGI (DU-145 prostate): 10.6 µM
GI50 (EKVX NSCLC): 4.33 µM
TGI (EKVX NSCLC): 9.25 µM
GI50 (HCC-2998 colon): 5.87 µM
TGI (HCC-2998 colon): 10.9 µM
GI50 (HCT-116 colon): 5.26 µM
TGI (HCT-116 colon): 10.2 µM
GI50 (HCT-15 colon): 5.39 µM
TGI (HCT-15 colon): 10.7 µM
GI50 (HL-60(TB) leukemia): 9.02 µM
TGI (HL-60(TB) leukemia): 28.7 µM
GI50 (HOP-62 NSCLC): 5.91 µM
TGI (HOP-62 NSCLC): 11.6 µM
GI50 (HOP-92 NSCLC): 2.99 µM
TGI (HOP-92 NSCLC): 7.93 µM
GI50 (HS 578T breast): 5.62 µM
TGI (HS 578T breast): 18.5 µM
GI50 (HT29 colon): 5.52 µM
TGI (HT29 colon): 13.2 µM
GI50 (IGROV1 ovarian): 4.85 µM
TGI (IGROV1 ovarian): 10.4 µM
GI50 (K-562 leukemia): 8.79 µM
TGI (K-562 leukemia): 36.5 µM
GI50 (KM12 colon): 5.63 µM
TGI (KM12 colon): 11.6 µM
GI50 (LOX IMVI melanoma): 5.22 µM
TGI (LOX IMVI melanoma): 9.99 µM
GI50 (M14 melanoma): 5.9 µM
TGI (M14 melanoma): 11.1 µM
GI50 (MALME-3M melanoma): 5.35 µM
TGI (MALME-3M melanoma): 10.3 µM
GI50 (MCF7 breast): 4.33 µM
TGI (MCF7 breast): 10.2 µM
GI50 (MDA-MB-231 breast): 5.34 µM
TGI (MDA-MB-231 breast): 10.2 µM
GI50 (MDA-MB-435): 5.61 µM
TGI (MDA-MB-435): 10.6 µM
GI50 (MDA-MB-468 breast): 5.24 µM
TGI (MDA-MB-468 breast): 10.1 µM
GI50 (MOLT-4 leukemia): 6.48 µM
TGI (MOLT-4 leukemia): 23.3 µM
GI50 (NCI-H226 lung): 5.39 µM
TGI (NCI-H226 lung): 10.6 µM
GI50 (NCI-H23 lung): 5.39 µM
TGI (NCI-H23 lung): 10.9 µM
GI50 (NCI-H460 lung): 6.07 µM
TGI (NCI-H460 lung): 12.7 µM
GI50 (NCI-H522 lung): 5.86 µM
TGI (NCI-H522 lung): 11.5 µM
GI50 (NCI/ADR-RES ovarian): 5.54 µM
TGI (NCI/ADR-RES ovarian): 12.1 µM
GI50 (OVCAR-3 ovarian): 3.77 µM
TGI (OVCAR-3 ovarian): 8.32 µM
GI50 (OVCAR-4 ovarian): 4.72 µM
TGI (OVCAR-4 ovarian): 10.5 µM
GI50 (OVCAR-5 ovarian): 4.89 µM
TGI (OVCAR-5 ovarian): 9.61 µM
GI50 (OVCAR-8 ovarian): 6.35 µM
TGI (OVCAR-8 ovarian): 15 µM
GI50 (PC-3 prostate): 4.09 µM
TGI (PC-3 prostate): 9.8 µM
GI50 (RPMI-8226 leukemia): 7.29 µM
TGI (RPMI-8226 leukemia): 23.4 µM
GI50 (RXF 393 renal): 3.67 µM
TGI (RXF 393 renal): 8.34 µM
GI50 (SF-268 CNS): 4.74 µM
TGI (SF-268 CNS): 10.2 µM
GI50 (SF-295 CNS): 4.77 µM
TGI (SF-295 CNS): 9.52 µM
GI50 (SF-539 CNS): 5.99 µM
TGI (SF-539 CNS): 11.2 µM
GI50 (SK-MEL-2 melanoma): 5.32 µM
TGI (SK-MEL-2 melanoma): 10.7 µM
GI50 (SK-MEL-28 melanoma): 5.78 µM
TGI (SK-MEL-28 melanoma): 10.7 µM
GI50 (SK-MEL-5 melanoma): 5.83 µM
TGI (SK-MEL-5 melanoma): 10.8 µM
GI50 (SK-OV-3 ovarian): 6.75 µM
TGI (SK-OV-3 ovarian): 15.9 µM
GI50 (SN12C renal): 4.8 µM
TGI (SN12C renal): 9.56 µM
GI50 (SNB-19 CNS): 6.08 µM
TGI (SNB-19 CNS): 12.1 µM
GI50 (SNB-75 CNS): 2.7 µM
TGI (SNB-75 CNS): 9.33 µM
GI50 (SW-620 colon): 5.9 µM
TGI (SW-620 colon): 11.7 µM
GI50 (T-47D breast): 4.09 µM
TGI (T-47D breast): 9.42 µM
GI50 (TK-10 renal): 5.54 µM
TGI (TK-10 renal): 10.9 µM
GI50 (U251 CNS): 5.6 µM
TGI (U251 CNS): 12.1 µM
GI50 (UACC-257 melanoma): 5.77 µM
TGI (UACC-257 melanoma): 11.5 µM
GI50 (UACC-62 melanoma): 4.69 µM
TGI (UACC-62 melanoma): 9.48 µM
GI50 (UO-31 renal): 4.41 µM
TGI (UO-31 renal): 8.94 µM

Reference: PubChem BioAssay (NCI)
